Consider nine molecules from patent US5807700A, “Method of screening anti-amebic agents with an E. coli mutant having a deleted adhE gene complemented by the E. histolytica EhADH2 gene” (Washington University, priority 1995, dated 1998).

In series [1] the target is T1, native EhADH2 enzyme (Entamoeba histolytica, UniProt Q24803).
T1 construct: essentially identical to that reported for the native EhADH2 enzyme (80 mM) (11)
To be noted: read-out: Km reported for native EhADH2 enzyme; cited from earlier work.

The target in series [2] is T2, purified recombinant EhADH2 (Entamoeba histolytica, UniProt Q24803).
T2 construct: a NcoI site at the initiating ATG codon using PCR with the EhADH2 cDNA as the template; made in house; host or cells: E. coli SHH31(DE3) carrying pET/EhADH2
T2 sequence (Q24803 1-870): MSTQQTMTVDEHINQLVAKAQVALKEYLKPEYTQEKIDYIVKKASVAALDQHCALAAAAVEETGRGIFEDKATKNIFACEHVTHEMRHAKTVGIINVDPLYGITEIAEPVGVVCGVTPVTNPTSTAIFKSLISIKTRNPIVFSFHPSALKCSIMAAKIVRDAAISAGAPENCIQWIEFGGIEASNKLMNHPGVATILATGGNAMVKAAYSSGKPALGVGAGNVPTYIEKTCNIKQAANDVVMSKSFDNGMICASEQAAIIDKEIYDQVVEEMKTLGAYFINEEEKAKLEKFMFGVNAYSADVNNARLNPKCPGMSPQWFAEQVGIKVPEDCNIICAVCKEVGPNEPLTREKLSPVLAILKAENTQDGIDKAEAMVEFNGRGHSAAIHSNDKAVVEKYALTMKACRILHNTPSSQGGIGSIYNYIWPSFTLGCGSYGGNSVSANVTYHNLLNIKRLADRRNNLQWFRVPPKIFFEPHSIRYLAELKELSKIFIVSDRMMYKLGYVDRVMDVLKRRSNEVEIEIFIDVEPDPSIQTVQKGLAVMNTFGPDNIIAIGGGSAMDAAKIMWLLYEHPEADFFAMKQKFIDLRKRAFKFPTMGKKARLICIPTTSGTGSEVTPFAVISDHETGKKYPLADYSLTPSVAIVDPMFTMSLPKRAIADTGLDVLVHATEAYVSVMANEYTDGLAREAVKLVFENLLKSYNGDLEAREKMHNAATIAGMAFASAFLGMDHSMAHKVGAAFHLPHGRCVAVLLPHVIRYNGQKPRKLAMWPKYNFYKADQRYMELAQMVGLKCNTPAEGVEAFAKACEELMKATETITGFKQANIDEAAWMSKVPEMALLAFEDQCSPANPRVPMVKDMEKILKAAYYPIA
The series can be described thus: Substrate specificity and kinetics, ADH activity of purified recombinant EhADH2. It counts as biochemical. The note with it: for substrate for the enzyme (ADH reactivity): purified recombinant EhADH2, 1 mM NAD+, pH 9.5. The method, then:
(§1) ADH activity of the supernatant fraction from bacterial lysates, or of the purified recombinant enzyme was assayed spectrophotometrically by measuring the decrease in absorbance at 340 nm following the oxidation of NADH to […] (21). The cuvette contained 6 mM DTT, 5 mM MgSO4, 0.1 mM Fe(NH4)2 (SO4)2, 0.4 mM NADH, 10 mM acetaldehyde, and 0.1 M MOPS-KOH buffer (pH 7.5) to give a final volume of 1.0 ml. MOPS=3-[N-Morpholino]propanesulfonic acid; DTT=dithiothreitol.
(§2) To study the substrate specificity and kinetics of the purified recombinant EhADH2 molecule, the spectrophotometric assay of ADH activity was again utilized, with 5 μg of the purified enzyme in the presence of 50 mM glycine/NaOH buffer (pH 9.5) containing 6 mM DTT, 5 mM MgSO4, 0.1 mM Fe(NH4)2 (SO4)2, 1 mM […], and varying concentrations of the substrate alcohol to be tested (11). The Km and Kcat values expressed were determined using non-linear regression to fit the values for initial velocity and substrate concentration to the Michaelis-Menten equation.

Series [3] deals with E. coli SHH31/pMON/EhADH2. Briefly: EhADH2 inhibition assay: growth of E. coli SHH31 transformed with pMON/EhADH2 (O.D. at 600 nm). It counts as cell-based. To be noted: M9 minimal liquid medium, pyrazole 5 to 20 mM, O.D. 600 nm at 24 and 48 hrs. The procedure: E. coli and E. histolytica strains and culture conditions. Conventional E. coli strains, DH5α, BL21(DE3), and SHH31 (Δadh zch::Tn10 fadR met tyrT) (15) were used for transformation and the expression of recombinant EhADH2. Aerobic cultures were grown in LB medium with agitation at 37° C. For anaerobic growth, bacteria were incubated in anaerobic jars, BBL®GasPak® System under an H2 -CO2 atmosphere generated by BBL GAS PAK Anaerobic System Envelopes (Becton Dickinson, Cockeysville, Md.).
Anaerobic indicator strips were used to ensure anaerobic conditions. M9 minimal medium used for anaerobic growth was supplemented with glucose at 0.25%, thiamine (1 mM), CaCl2 (0.1 mM), MgSO4 (1.2 mM), and the following trace minerals: Fe(50 μM), Se(5 μM), Mo(5 μM), Mn(5 μM) (16).
Anaerobic liquid cultures were grown without agitation in tubes inside the anaerobic jars at 37° C. Solid media contained 1.5% Bacto Agar (Difco, Detroit, Mich.). […]
(§3) E. coli SHH31 transformed with pMON/EhADH2 were inoculated into M9 minimal liquid medium and grown under anaerobic or aerobic conditions in the presence or absence of pyrazole (Sigma Chemical Co., St. Louis, Mo.) at concentrations of 5 to 20 mM. Growth was monitored by determining the optical density (O.D.) at 600 nm at 24 and 48 hrs post-inoculation. […] Viable trophozoites were counted using a hemacytometer at days 2 and 4, and the number of trophozoites/ml recorded.

Series [4] deals with T3, EhADH1 (Entamoeba histolytica, UniProt P35630).
T3 sequence (P35630 1-366): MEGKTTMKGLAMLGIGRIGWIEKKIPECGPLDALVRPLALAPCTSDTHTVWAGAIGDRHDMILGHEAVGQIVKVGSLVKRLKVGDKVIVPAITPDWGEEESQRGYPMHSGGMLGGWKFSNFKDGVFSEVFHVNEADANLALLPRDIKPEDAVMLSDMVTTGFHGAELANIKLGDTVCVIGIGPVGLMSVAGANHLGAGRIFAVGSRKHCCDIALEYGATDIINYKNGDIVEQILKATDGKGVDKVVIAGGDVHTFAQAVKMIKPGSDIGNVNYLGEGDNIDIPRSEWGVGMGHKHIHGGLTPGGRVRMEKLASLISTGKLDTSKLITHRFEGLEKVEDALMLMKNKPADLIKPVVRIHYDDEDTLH
To be noted: NADP+-dependent EhADH1; cited from earlier work.

Series [5] addresses T4, recombinant EhADH2 (Entamoeba histolytica, UniProt Q24803).
T4 construct: a NcoI site at the initiating ATG codon using PCR with the EhADH2 cDNA as the template; made in house; host or cells: E. coli SHH31(DE3) carrying pET/EhADH2
T4 sequence (Q24803 1-870): T2 sequence (Q24803 1-870)
Briefly: Inhibition of purified recombinant EhADH2 enzyme (Ki). It counts as biochemical. To be noted: read-out: Ki for the recombinant EhADH2 molecule. The procedure: as §1, §2

Series [6] concerns E. histolytica HM1:IMSS trophozoites. Briefly: Inhibition of E. histolytica growth (viable trophozoite count). It counts as cell-based, Entamoeba histolytica. Also on record: effect on E. histolytica growth: dose or concentration left out as unconfirmed. The method, then:
Anaerobic liquid cultures were grown without agitation in tubes inside the anaerobic jars at 37° C. Solid media contained 1.5% Bacto Agar (Difco, Detroit, Mich.). Trophozoites of E. histolytica HM1:IMSS were cultured axenically in BYI-S-33 medium by conventional procedure as previously described (17).
as §3

The target in series [7] is E. coli AdhE enzyme (Escherichia coli, UniProt P0A9Q7). The note with it: read-out: Km for the E. coli AdhE enzyme; cited from earlier work.
Substrate in series [8]: CC=O
The series can be described thus: Substrate specificity and kinetics, ADH activity of purified recombinant EhADH2. It counts as biochemical, Entamoeba histolytica. The note with it: other: reaction acetaldehyde + NADH.

Substrate in series [9]: NC(=O)C1=CN([C@@H]2O[C@H](COP(=O)(O)OP(=O)(O)OC[C@H]3O[C@@H](n4cnc5c(N)ncnc54)[C@H](O)[C@@H]3O)[C@@H](O)[C@H]2O)C=CC1
The series is described as above. It is filed as biochemical, Entamoeba histolytica. To be noted: other: reaction acetaldehyde + NADH.

Substrate in series [10]: CCCO
The series is described as above. It counts as biochemical, Entamoeba histolytica. To be noted: other: reaction 1-propanol + NAD+.

Substrate in series [11]: CCO
The description is as above. The note with it: other: reaction ethanol + NAD+. It counts as biochemical, Entamoeba histolytica.

Substrate in series [12]: NC(=O)C1=CN([C@@H]2O[C@H](COP(=O)(O)OP(=O)(O)OC[C@H]3O[C@@H](n4cnc5c(N)ncnc54)[C@H](O)[C@@H]3O)[C@@H](O)[C@H]2O)C=CC1
Briefly: ALDH activity kinetics of purified recombinant EhADH2. The note with it: other: reaction acetyl-CoA + NADH; pH 9.5. It is filed as biochemical, Entamoeba histolytica. The method, then:
(§4) ALDH activity was assayed using the same method, with the substitution of 0.1 mM acetyl-CoA for acetaldehyde in the reaction buffer. A unit of enzyme activity is defined as the micromoles of product formed per min of incubation at room temperature.
as §2

Substrate in series [13]: CC(=O)SCCNC(=O)CCNC(=O)[C@H](O)C(C)(C)COP(=O)(O)OP(=O)(O)OC[C@H]1O[C@@H](n2cnc3c(N)ncnc32)[C@H](O)[C@@H]1OP(=O)(O)O
The series is described as above. It counts as biochemical, Entamoeba histolytica. To be noted: other: reaction acetyl-CoA + NADH; pH 9.5. The method, then:
as §4, §2

As usually defined, the Km is the concentration of substrate that gives half-maximal velocity. As usually defined, the Ki is a dissociation constant, usually derived from enzyme kinetics or from competition with a known ligand.

Chain of E. coli AdhE enzyme (P0A9Q7 whole entry): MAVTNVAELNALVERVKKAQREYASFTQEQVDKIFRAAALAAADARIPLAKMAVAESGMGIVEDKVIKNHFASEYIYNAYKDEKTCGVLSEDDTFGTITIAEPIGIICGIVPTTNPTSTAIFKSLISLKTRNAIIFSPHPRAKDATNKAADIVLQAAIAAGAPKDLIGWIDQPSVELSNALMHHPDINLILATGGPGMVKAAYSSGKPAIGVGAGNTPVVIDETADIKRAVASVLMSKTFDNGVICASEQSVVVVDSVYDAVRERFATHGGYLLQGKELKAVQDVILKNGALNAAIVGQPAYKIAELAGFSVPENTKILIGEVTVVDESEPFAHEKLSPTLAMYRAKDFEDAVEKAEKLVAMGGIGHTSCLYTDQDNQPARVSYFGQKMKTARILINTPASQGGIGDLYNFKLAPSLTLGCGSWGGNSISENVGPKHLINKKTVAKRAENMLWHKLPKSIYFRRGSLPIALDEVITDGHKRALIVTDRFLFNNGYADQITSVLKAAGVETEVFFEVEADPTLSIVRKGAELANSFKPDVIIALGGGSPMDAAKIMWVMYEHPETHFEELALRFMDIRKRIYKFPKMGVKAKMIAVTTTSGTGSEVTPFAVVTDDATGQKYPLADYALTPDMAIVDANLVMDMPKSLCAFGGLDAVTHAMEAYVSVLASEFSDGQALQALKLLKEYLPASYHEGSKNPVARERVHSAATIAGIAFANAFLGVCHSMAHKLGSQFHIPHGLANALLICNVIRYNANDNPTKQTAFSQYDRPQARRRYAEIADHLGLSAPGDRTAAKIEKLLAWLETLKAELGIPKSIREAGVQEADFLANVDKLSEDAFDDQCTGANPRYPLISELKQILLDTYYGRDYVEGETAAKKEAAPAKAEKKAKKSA

Turning to `CC=O` [acetaldehyde], the Km in [1] was 150 µM.

For the molecule `CC1=C(/C=C/C(C)=C/C=C/C(C)=C/CO)C(C)(C)CCC1` [retinol], the “substrate for the enzyme (ADH reactivity)” value (“substrate for the enzyme” for short) in series [2] is “neither retinol nor methanol were substrates”.

As for `c1cn[nH]c1` [pyrazole], the “effect on growth under aerobic conditions” value in series [3] (aerobic) is on record as “much reduced effect”. In series [3] (anaerobic), the “inhibition of anaerobic growth of SHH31/pMON/EhADH2” value is “in a dose-dependent manner significantly inhibited”. Besides, the inhibition constant (Ki) is 0.0014 mM in series [4] and 7.24 mM in series [5]. For the same molecule, the “effect on E. histolytica growth” value in series [6] is listed as “no effect”. Moreover, the “inhibition of growth of E. histolytica trophozoites” value in series [6] (concentration of 20 to 40 mM, viable trophozoites at days 2 and 4) is given as “significantly inhibited amebic growth”.

As to `CO` [methanol], the “substrate for the enzyme” value in series [2] is reported as “neither retinol nor methanol were substrates”.

`CC(C)O` [isopropanol]: in series [2], the “substrate for the enzyme” value is “No reactivity”.

For `CCO` [ethanol], the results for the Km in series [7] and in [1] were 30000 µM and 80000 µM, respectively.

For `CCC(C)O` (stereo not drawn) [sec-butanol], the “substrate for the enzyme” value in series [2] is on record as “No reactivity”.

`NC(=O)c1ccc[n+]([C@@H]2O[C@H](COP(=O)(O)OP(=O)(O)OC[C@H]3O[C@@H](n4cnc5c(N)ncnc54)[C@H](O)[C@@H]3O)[C@@H](O)[C@H]2O)c1` [NAD^+]: the figures for the Km in series [2] (reaction 1-propanol + NAD+) and in [2] (reaction ethanol + NAD+) were 250 µM and 550 µM, respectively.

B1: purified recombinant EhADH2 (Entamoeba histolytica HM-1:IMSS) (protein)
chain: T2 sequence (Q24803 1-870)
notes: a NcoI site at the initiating ATG codon using PCR with the EhADH2 cDNA as the template; made in house; host or cells: E. coli SHH31(DE3) carrying pET/EhADH2
As to B1, the Km in series [8] was determined as 2900 µM; in [9], 280 µM; in series [10], 40000 µM; in series [11], 85000 µM; in series [12] it was 170 µM; in [13], 40 µM.
